Test results taken from patent publication US5395624A, “Depigmenting cosmetic and/or dermatological composition containing a di- or tri-caffeoylquinic acid, or a mixture thereof” (L'Oreal, priority 1992, dated 1995).

How the values were obtained:
fungal tyrosinase = experiment: in vitro test of inhibition of tyrosinase activity; type: biochemical; settings: L-tyrosine with L-dopa co-substrate, pH 6.5, 25° C., dopachrome at 475 nm, read-out: IC 50 (content leading to 50% inhibition of the tyrosinase)
From the text: The di- and tri-caffeoylquinic acids corresponding to general formula (I) have been studied comparatively with caffeic acid in equivalent molar quantities in the in vitro inhibition test of tyrosinase activity.
In this test, visible spectrometry at 475 mn is used to monitor the quantity of dopachrome formed during the chain of reactions by which tyrosine is transformed into melanins. These reactions are catalyzed in vitro using fungal tyrosinase in the presence of a reducing co-substrate (e.g., a small quantity of L-dopa) in order to initiate the hydroxylation reaction of L-tyrosine into L-dopa, which is then catalytically oxidized into dopaquinone, and then into dopachrome which is, an intermediate product, prior to the non-enzymatic oxidation reactions leading to melanin formation.
Accordingly, the concentration of dopachrome formed over time is measured in the presence and absence of the inhibitor.
The inhibition effect is expressed by the lowering of the maximum quantity of dopachrome formed (value of the optical density at 475 nm read on the flat part of the curve) in relation to the quantity obtained in the absence of the inhibitor.
For each compound, the content in micromoles per liter leading to 50% inhibition of the tyrosinase (IC 50) is measured.
A--Phosphate buffer 0.1M pH=6.5 (composition for 200 ml of buffer: 68.5 ml of NaH2 PO4 0.2M+31.5 ml of Na2 HPO4 0.2M+100 ml of water)
B--Mother solution of L-tyrosine at 2×10^-3 M in A
C--Mother solution of L-dopa at 10^-4 M in A
D--Mother solution of fungal tyrosinase at 2,400 units/ml in A
E--Mother solution of the inhibitor at 10^-2 M in ethanol (solutions C and D must be prepared the same day).
homogenize and establish equilibrium at 25° C.
add 0.05 ml of D to the test trough
mix rapidly and observe the kinetics by measuring absorption at 475 nm as a function of time.

[1] = background statement; cited from earlier work
melanocytes = settings: background statement; cited from earlier work

Row | SMILES | IC50 (fungal tyrosinase) [µM] | irritation [1] | cytotoxicity for melanocytes (melanocytes)
1 | O=C(C=Cc1ccc(O)c(O)c1)OC1CC(OC(=O)C=Cc2ccc(O)c(O)c2)(C(=O)O)CC(O)C1O (centres unmarked) [1,3-di-caffeoylquinic acid] | 47 |  | 
2 | O=C(C=Cc1ccc(O)c(O)c1)OC1CC(O)(C(=O)O)CC(OC(=O)C=Cc2ccc(O)c(O)c2)C1OC(=O)C=Cc1ccc(O)c(O)c1 (centres unmarked) [3,4,5-tri-caffeoylquinic acid] | 29 |  | 
3 | O=C(C=Cc1ccc(O)c(O)c1)OC1CC(O)(C(=O)O)CC(O)C1OC(=O)C=Cc1ccc(O)c(O)c1 (centres unmarked) [3,4-di-caffeoylquinic acid] | 85 |  | 
4 | O=C(C=Cc1ccc(O)c(O)c1)OC1CC(O)(C(=O)O)CC(OC(=O)C=Cc2ccc(O)c(O)c2)C1O (centres unmarked) [3,5-di-caffeoylquinic acid] | 52 |  | 
5 | O=C(C=Cc1ccc(O)c(O)c1)OC1CC(O)(C(=O)O)CC(O)C1OC(=O)C=Cc1ccc(O)c(O)c1 (centres unmarked) [4,5-di-caffeoylquinic acid] | 45 |  | 
6 | O=C(O)/C=C/c1ccc(O)c(O)c1 [Caffeic acid, reference compound] | 530 |  | 
7 | Oc1ccc(O)cc1 [hydroquinone] |  | especially irritating | cytotoxic for melanocytes
